Measured values reported in ChEMBL document CHEMBL1144186, “New iodoreboxetine analogues for SPECT imaging of the noradrenaline transporter” (Bioorg Med Chem Lett, 2008).

How the values were obtained:
[1] = Displacement of [3H]nisoxetine from rat brain NAT; format: tissue-based
[2] = target: Sodium-dependent serotonin transporter (Rattus norvegicus, UniProt P31652); assay: Displacement of [3H]citalopram from rat brain SERT
[3] = target: Sodium-dependent dopamine transporter (Rattus norvegicus, UniProt P23977); assay: Displacement of [3H]WIN-35428 from rat brain DAT; format: tissue-based
[4] = species on record: Rattus norvegicus; assay: Selectivity for rat NAT over rat SERT
[5] = species on record: Rattus norvegicus; assay: Selectivity for rat NAT over rat DAT

Sodium-dependent serotonin transporter, sequence (P31652 whole entry): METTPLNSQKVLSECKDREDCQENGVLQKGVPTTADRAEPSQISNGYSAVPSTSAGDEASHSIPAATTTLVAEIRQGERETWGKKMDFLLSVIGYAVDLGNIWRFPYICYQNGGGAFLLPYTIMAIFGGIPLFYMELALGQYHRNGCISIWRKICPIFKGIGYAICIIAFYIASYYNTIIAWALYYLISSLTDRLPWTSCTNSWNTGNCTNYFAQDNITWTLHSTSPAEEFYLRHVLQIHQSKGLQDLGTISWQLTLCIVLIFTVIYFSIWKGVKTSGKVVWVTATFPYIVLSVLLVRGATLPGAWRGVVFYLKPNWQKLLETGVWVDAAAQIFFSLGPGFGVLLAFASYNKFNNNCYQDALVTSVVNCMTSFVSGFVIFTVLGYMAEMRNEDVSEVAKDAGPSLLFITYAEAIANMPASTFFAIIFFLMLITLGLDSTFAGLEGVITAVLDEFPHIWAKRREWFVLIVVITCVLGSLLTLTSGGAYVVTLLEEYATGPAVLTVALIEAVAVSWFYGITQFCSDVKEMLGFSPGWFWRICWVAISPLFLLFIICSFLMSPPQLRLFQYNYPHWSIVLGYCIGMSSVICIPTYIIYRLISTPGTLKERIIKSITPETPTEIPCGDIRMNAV
Sodium-dependent dopamine transporter, sequence (P23977 whole entry): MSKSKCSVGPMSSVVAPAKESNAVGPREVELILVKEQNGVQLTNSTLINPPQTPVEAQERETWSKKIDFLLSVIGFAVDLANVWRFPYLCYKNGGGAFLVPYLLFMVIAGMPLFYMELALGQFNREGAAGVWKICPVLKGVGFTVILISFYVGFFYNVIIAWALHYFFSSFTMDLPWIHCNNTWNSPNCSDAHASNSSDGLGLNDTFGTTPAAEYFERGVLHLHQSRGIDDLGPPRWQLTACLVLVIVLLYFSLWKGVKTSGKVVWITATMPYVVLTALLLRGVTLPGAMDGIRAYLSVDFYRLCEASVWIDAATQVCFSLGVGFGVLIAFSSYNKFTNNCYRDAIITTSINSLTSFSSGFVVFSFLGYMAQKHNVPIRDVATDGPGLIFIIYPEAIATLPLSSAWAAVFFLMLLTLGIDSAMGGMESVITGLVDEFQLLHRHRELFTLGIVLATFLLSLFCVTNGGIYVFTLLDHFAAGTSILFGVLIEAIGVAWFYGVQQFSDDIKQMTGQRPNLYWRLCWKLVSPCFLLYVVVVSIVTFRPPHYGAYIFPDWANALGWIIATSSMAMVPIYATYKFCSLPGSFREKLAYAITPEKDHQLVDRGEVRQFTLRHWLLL

| Ki [1] | Ki [2] | Ki [3] | Ratio Ki [4] | Ratio Ki [5] | SMILES |
| --- | --- | --- | --- | --- | --- |
| 53.8 nM | 2790 nM | 1460 nM | 50 | 25 | CCOc1ccccc1O[C@@H](c1ccc(I)cc1)[C@@H]1CNCCO1 |
| 321 nM |  |  |  |  | CCOc1ccccc1O[C@H](c1ccc(I)cc1)[C@@H]1CNCCO1 |
| 64 nM | 646 nM | 716 nM |  |  | CCOc1ccccc1O[C@H](c1ccc(I)cc1)[C@H]1CNCCO1 |
| 58.2 nM |  |  |  |  | CCOc1ccccc1O[C@@H](c1ccc(I)cc1)[C@H]1CNCCO1 |
